# Laboratory results: patent US9980943B2, “Methods of treating muscular dystrophy” (BOARD OF REGENTS OF THE NEVADA SYSTEM OF HIGHER EDUCATION, …, priority 2013, dated 2018)
# How the values were obtained:
# Type in all cases: cell-based, mouse
# [1] = tested on: α7 integrin (LacZ reporter in α7βgal+/− myoblasts); assay: Myoblast α7+/LacZ integrin FDG assay (Burkin assay in myoblasts, 96-well); details: α7+/LacZ myoblasts, 96-well
# [2] = tested on: α7 integrin (LacZ reporter in α7+/LacZ myotubes); assay: Myotube α7 integrin FDG assay (Burkin assay in myotubes, 96-well); details: myotubes
# [3] = tested on: β-galactosidase in CMV-LacZ C2C12 myotubes; assay: CMV-LacZ secondary screen in C2C12 myotubes (β-Gal stabilizing assay); details: for CMV-LACZ in Myotubes, signal relative to DMSO: C2C12 CMV-LacZ myotubes, fold relative to DMSO; for CMV-LACZ in Myotubes (β-galactosidase activity relative to DMSO): CMV-LacZ C2C12 myotubes, 96-well format
# How it was run: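 Stable CMV-LacZ C2C12 clone; six-point curve 0.5–40 μM; duplicates.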
SMILES,"Burkin Assay in Myoblasts, signal relative to DMSO ([1]; 0.5 uM)","Burkin Assay in Myoblasts, signal relative to DMSO ([1]; 1 uM)","Burkin Assay in Myoblasts, signal relative to DMSO ([1]; 5 uM)","Burkin Assay in Myoblasts, signal relative to DMSO ([1]; 10 uM)","CMV-LACZ in Myotubes, signal relative to DMSO ([3]; 5 uM)","CMV-LACZ in Myotubes, signal relative to DMSO ([3]; 10 uM)","CMV-LACZ in Myotubes, signal relative to DMSO ([3]; 20 uM)","CMV-LACZ in Myotubes, signal relative to DMSO ([3]; 40 uM)","Burkin Assay in Myoblasts, value relative to DMSO ([1]; 0.5 uM)","Burkin Assay in Myoblasts, value relative to DMSO ([1]; 1 uM)","Burkin Assay in Myoblasts, value relative to DMSO ([1]; 5 uM)","Burkin Assay in Myoblasts, value relative to DMSO ([1]; 10 uM)","Burkin Assay in Myoblasts, value relative to DMSO ([1]; 20 uM)","Burkin Assay in Myoblasts, value relative to DMSO ([1]; 40 uM)",Burkin Assay in Myotubes (signal relative to DMSO) ([2]; 0.5 uM),Burkin Assay in Myotubes (signal relative to DMSO) ([2]; 1 uM),Burkin Assay in Myotubes (signal relative to DMSO) ([2]; 5 uM),Burkin Assay in Myotubes (signal relative to DMSO) ([2]; 10 uM),Burkin Assay in Myotubes (signal relative to DMSO) ([2]; 20 uM),Burkin Assay in Myotubes (signal relative to DMSO) ([2]; 40 uM),also measured
COc1ccc(S(=O)(=O)N(NC2=NS(=O)(=O)c3ccccc32)C(=O)C(C)C)cc1 [MLS000682883-01],0.9476,0.9633,1.011,0.9192,0.9333,1.084,1.087,0.8967,,,,,,,,,,,,,"Burkin Assay in Myoblasts, signal relative to DMSO ([1]; 20 uM): 0.8269; Burkin Assay in Myoblasts, signal relative to DMSO ([1]; 40 uM): 0.7379; Burkin Assay in Myotubes, α7 integrin LacZ reporter signal relative to DMSO ([2]; 0.5 uM): 0.8116; Burkin Assay in Myotubes, α7 integrin LacZ reporter signal relative to DMSO ([2]; 1 uM): 1.095; Burkin Assay in Myotubes, α7 integrin LacZ reporter signal relative to DMSO ([2]; 5 uM): 0.9936; Burkin Assay in Myotubes, α7 integrin LacZ reporter signal relative to DMSO ([2]; 10 uM): 1.01; Burkin Assay in Myotubes, α7 integrin LacZ reporter signal relative to DMSO ([2]; 20 uM): 1.102; Burkin Assay in Myotubes, α7 integrin LacZ reporter signal relative to DMSO ([2]; 40 uM): 1.094"
Cc1ccccc1C(=O)Nc1nnc(SC(C)C)s1 [MLS000683174-01],,,,,1.156,1.0866,1.035,1.238,1.02,0.9176,1.02,1.014,1.028,0.8059,1.145,0.9165,1.007,0.8907,1.081,0.9864,
CC1CCCCN1c1ncnc(N)c1[N+](=O)[O-] (centres unmarked) [MLS000683234-01],1.187,0.8341,1.134,1.152,0.8204,0.8111,0.6952,0.93,,,,,,,,,,,,,"Burkin Assay in Myoblasts, signal relative to DMSO ([1]; 20 uM): 1.067; Burkin Assay in Myoblasts, signal relative to DMSO ([1]; 40 uM): 1.21; Burkin Assay in Myotubes, α7 integrin LacZ reporter signal relative to DMSO ([2]; 0.5 uM): 0.9165; Burkin Assay in Myotubes, α7 integrin LacZ reporter signal relative to DMSO ([2]; 1 uM): 1.053; Burkin Assay in Myotubes, α7 integrin LacZ reporter signal relative to DMSO ([2]; 5 uM): 1.091; Burkin Assay in Myotubes, α7 integrin LacZ reporter signal relative to DMSO ([2]; 10 uM): 1.273; Burkin Assay in Myotubes, α7 integrin LacZ reporter signal relative to DMSO ([2]; 20 uM): 1.414; Burkin Assay in Myotubes, α7 integrin LacZ reporter signal relative to DMSO ([2]; 40 uM): 1.631"
CCCC(=O)Nc1ccccc1NC(=O)c1ccc(OCC)cc1 [MLS000685139-01],,,,,,,,,0.8234,0.6285,0.8416,0.776,0.9893,0.9848,0.8703,0.9202,1.128,1.24,1.102,1.267,CMV-LACZ in Myotubes (β-galactosidase activity relative to DMSO) ([3]; 5 uM): 0.9362; CMV-LACZ in Myotubes (β-galactosidase activity relative to DMSO) ([3]; 10 uM): 1.036; CMV-LACZ in Myotubes (β-galactosidase activity relative to DMSO) ([3]; 20 uM): 1.031; CMV-LACZ in Myotubes (β-galactosidase activity relative to DMSO) ([3]; 40 uM): 0.9387
Cc1ccc(NCc2nnc(SCC(=O)Nc3nnc(C)s3)n2C)cc1 [MLS000688437-01],0.8901,0.8878,0.8233,0.9077,1.232,0.9346,1.03,1.051,,,,,,,,,,,,,"Burkin Assay in Myoblasts, signal relative to DMSO ([1]; 20 uM): 0.8203; Burkin Assay in Myoblasts, signal relative to DMSO ([1]; 40 uM): 0.8064; Burkin Assay in Myotubes, α7 integrin LacZ reporter signal relative to DMSO ([2]; 0.5 uM): 1.076; Burkin Assay in Myotubes, α7 integrin LacZ reporter signal relative to DMSO ([2]; 1 uM): 1.194; Burkin Assay in Myotubes, α7 integrin LacZ reporter signal relative to DMSO ([2]; 5 uM): 1.124; Burkin Assay in Myotubes, α7 integrin LacZ reporter signal relative to DMSO ([2]; 10 uM): 1.102; Burkin Assay in Myotubes, α7 integrin LacZ reporter signal relative to DMSO ([2]; 20 uM): 0.9929; Burkin Assay in Myotubes, α7 integrin LacZ reporter signal relative to DMSO ([2]; 40 uM): 1.034"
CCS(=O)(=O)N1CCN(c2ccc([N+](=O)[O-])c(NCC3CCCO3)c2)CC1 (centres unmarked) [MLS000693370-01],,,,,,,,,,,,,,,,,,,,,"fold induction at 0.5 µM ([1]; Mus musculus, Myoblast, 48 h, 0.5 uM, read-out: Burkin Assay in Myoblasts, value relative to DMSO): 0.864; fold induction at 1 µM ([1]; Mus musculus, Myoblast, 48 h, 1 uM, read-out: Burkin Assay in Myoblasts, value relative to DMSO): 0.8; fold induction at 5 µM ([1]; Mus musculus, Myoblast, 48 h, 5 uM, read-out: Burkin Assay in Myoblasts, value relative to DMSO): 0.887; fold induction at 10 µM ([1]; Mus musculus, Myoblast, 48 h, 10 uM, read-out: Burkin Assay in Myoblasts, value relative to DMSO): 1.06; fold induction at 20 µM ([1]; Mus musculus, Myoblast, 48 h, 20 uM, read-out: Burkin Assay in Myoblasts, value relative to DMSO): 0.951; fold induction at 40 µM ([1]; Mus musculus, Myoblast, 48 h, 40 uM, read-out: Burkin Assay in Myoblasts, value relative to DMSO): 0.937; fold induction at 0.5 µM ([2]; Mus musculus, Myotube, 0.5 uM, read-out: Burkin Assay in Myotubes (signal relative to DMSO)): 1.11; fold induction at 1 µM ([2]; Mus musculus, Myotube, 1 uM, read-out: Burkin Assay in Myotubes (signal relative to DMSO)): 1.13; fold induction at 5 µM ([2]; Mus musculus, Myotube, 5 uM, read-out: Burkin Assay in Myotubes (signal relative to DMSO)): 1.16; fold induction at 10 µM ([2]; Mus musculus, Myotube, 10 uM, read-out: Burkin Assay in Myotubes (signal relative to DMSO)): 1.28; fold induction at 20 µM ([2]; Mus musculus, Myotube, 20 uM, read-out: Burkin Assay in Myotubes (signal relative to DMSO)): 1.15; fold induction at 40 µM ([2]; Mus musculus, Myotube, 40 uM, read-out: Burkin Assay in Myotubes (signal relative to DMSO)): 1.25; CMV-LACZ in Myotubes (β-galactosidase activity relative to DMSO) ([3]; 5 uM): 0.9783; CMV-LACZ in Myotubes (β-galactosidase activity relative to DMSO) ([3]; 10 uM): 0.9621; CMV-LACZ in Myotubes (β-galactosidase activity relative to DMSO) ([3]; 20 uM): 0.9947; CMV-LACZ in Myotubes (β-galactosidase activity relative to DMSO) ([3]; 40 uM): 1.1136"
C=CCN(CC=C)C(=O)c1ccc(OC2CCN(S(=O)(=O)N(C)C)CC2)cc1 [MLS000693729-01],,,,,0.9722,1.057,0.9031,0.879,0.9069,0.7902,0.8647,0.9088,0.9136,0.9194,0.8219,0.7707,1.119,1.144,0.9682,1.056,
CCS(=O)(=O)N1CCCC(C(=O)c2ccc(OC)cc2C)C1 (centres unmarked) [MLS000693747-01],,,,,,,,,1.114,1.036,1.0596,1.088,0.8796,0.9175,1.061,0.7194,1.433,0.9111,1.122,1.0456,CMV-LACZ in Myotubes (β-galactosidase activity relative to DMSO) ([3]; 5 uM): 0.9962; CMV-LACZ in Myotubes (β-galactosidase activity relative to DMSO) ([3]; 10 uM): 0.9523; CMV-LACZ in Myotubes (β-galactosidase activity relative to DMSO) ([3]; 20 uM): 0.9693; CMV-LACZ in Myotubes (β-galactosidase activity relative to DMSO) ([3]; 40 uM): 1.043
